The species named for one series is Bos taurus. Briefly: Compound was tested at 1 nM for the inhibition of […] in bovine seminal vesicle microsomes; NI=No inhibition. The series is classed as functional.
The species named for another series is Rattus norvegicus. Briefly: Compound was tested for the inhibition of U46,619-induced contractions in rat aortas. It counts as functional. Conditions: Aorta.
Another series deals with Mus musculus. The experiment in a line: Time duration taken by the compound (0.2 mg/kg, po) to provide extended protection from U46,619 (2 mg/kg, iv) induced death. The series is classed as functional.
Series [1] can be described thus: Oral bioavailability in African green monkeys; 20-25. The series is classed as ADME, organism-based. Particulars: chlorocebus aethiops, in vivo, read-out: Bioavailabiility.
Series [2] concerns the target T1, Thromboxane-A synthase (Homo sapiens) (UniProt P24557).
T1 sequence (whole entry): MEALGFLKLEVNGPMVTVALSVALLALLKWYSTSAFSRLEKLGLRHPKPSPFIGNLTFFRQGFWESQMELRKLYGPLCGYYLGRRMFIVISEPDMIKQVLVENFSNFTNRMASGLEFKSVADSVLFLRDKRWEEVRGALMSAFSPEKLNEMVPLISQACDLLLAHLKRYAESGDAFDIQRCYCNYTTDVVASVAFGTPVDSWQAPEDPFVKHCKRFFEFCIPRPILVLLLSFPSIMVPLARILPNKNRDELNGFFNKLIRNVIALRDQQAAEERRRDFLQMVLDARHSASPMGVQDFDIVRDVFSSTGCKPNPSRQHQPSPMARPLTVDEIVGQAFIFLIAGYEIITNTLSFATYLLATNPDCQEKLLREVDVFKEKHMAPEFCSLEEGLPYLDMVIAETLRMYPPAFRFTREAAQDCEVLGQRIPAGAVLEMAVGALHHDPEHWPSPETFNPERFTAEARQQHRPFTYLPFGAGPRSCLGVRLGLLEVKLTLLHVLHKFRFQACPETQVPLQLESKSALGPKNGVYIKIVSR
The experiment in a line: Compound was tested for activity against Thromboxane A2 synthase in human PRP; NI=No inhibition.

A further series concerns Monkey. The experiment in a line: Oral dose of compound required to inhibit the U46,619-induced platelet aggregation in ex vivo African green monkeys. The series is classed as functional, Cercopithecidae.
The species named for the next series is Homo sapiens. Briefly: Compound was tested at 1 mM for the inhibition of ADP-induced (20 uM) platelet aggregation in human platelet-rich plasma; NI=No inhibition. It counts as functional, organism-based.

Active and inactive are the calls of the source. The calls are words filed in the database; no cut-off is given here.

Here are results for one compound from ChEMBL document CHEMBL1126334, “Thromboxane receptor antagonist BMS-180291: A new pre-clinical lead” (Bioorg Med Chem Lett, 1992).

Regarding `CCCCCNC(=O)c1coc([C@H]2[C@@H](Cc3ccccc3CCC(=O)O)[C@@H]3CC[C@H]2O3)n1` [IFETROBAN], the result (in the series listed under Bos taurus; in series [2]; in the series listed under Homo sapiens) was inactive. Besides, the Kb in the series listed under Rattus norvegicus is 560 pM. The compound also returned a T50 in the series with Mus musculus of 14 h. In addition, the bioavailability in series [1] stood at 20%. In addition, the Dose with Monkey stood at 3 mg/kg.
